From PubChem BioAssay (NCI)
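GI50 is the concentration that inhibits growth by half. TGI: total growth inhibition.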

What was measured:
Assay in all cases: NCI-60 cell line screen, 384-well format
NCI-H23 lung = test system: NCI-H23 lung
NCI-H322M lung = test system: NCI-H322M lung
NCI-H460 NSCLC = test system: NCI-H460 NSCLC
NCI-H522 lung = test system: NCI-H522 lung
NCI/ADR-RES ovarian = test system: NCI/ADR-RES ovarian
OVCAR-3 ovarian = test system: OVCAR-3 ovarian
OVCAR-4 ovarian = test system: OVCAR-4 ovarian
OVCAR-5 ovarian = test system: OVCAR-5 ovarian
OVCAR-8 ovarian = test system: OVCAR-8 ovarian
PC-3 prostate = test system: PC-3 prostate
RPMI-8226 leukemia = test system: RPMI-8226 leukemia
RXF 393 renal = test system: RXF 393 renal
SF-268 CNS = test system: SF-268 CNS
SF-295 CNS = test system: SF-295 CNS
SF-539 CNS = test system: SF-539 CNS
SK-MEL-28 melanoma = test system: SK-MEL-28 melanoma
SK-MEL-5 melanoma = test system: SK-MEL-5 melanoma
SK-OV-3 ovarian = test system: SK-OV-3 ovarian
SN12C renal = test system: SN12C renal
SNB-19 CNS = test system: SNB-19 CNS
SNB-75 CNS = test system: SNB-75 CNS
SR leukemia = test system: SR leukemia
SW-620 colon = test system: SW-620 colon
T-47D breast = test system: T-47D breast
TK-10 renal = test system: TK-10 renal
U251 glioblastoma = test system: U251 glioblastoma
UACC-257 melanoma = test system: UACC-257 melanoma
UACC-62 melanoma = test system: UACC-62 melanoma
UO-31 renal = test system: UO-31 renal

For CN1CCN(c2ccc(C(=O)Nc3n[nH]c4ccc(Cc5cc(F)cc(F)c5)cc34)c(NC3CCOCC3)c2)CC1, which GI50 (NCI-H23 lung) is on record?
The GI50 was 1230 nM.

And the TGI (NCI-H23 lung)?
Its TGI is 2480 nM.

What about the GI50 (NCI-H322M lung) of the same compound?
Its GI50 is 1470 nM.

And the TGI (NCI-H322M lung)?
Its TGI is 2790 nM.

What about the GI50 (NCI-H460 NSCLC) of the same compound?
The GI50 was 1570 nM.

What about the TGI (NCI-H460 NSCLC) of the same compound?
Its TGI is 2950 nM.

What about the GI50 (NCI-H522 lung) of the same compound?
The GI50 was 1400 nM.

What about the TGI (NCI-H522 lung) of the same compound?
The TGI was 2710 nM.

What about the GI50 (NCI/ADR-RES ovarian) of the same compound?
The GI50 was 1550 nM.

What about the TGI (NCI/ADR-RES ovarian) of the same compound?
The TGI was 2900 nM.

What about the GI50 (OVCAR-3 ovarian) of the same compound?
The GI50 was 1050 nM.

What about the TGI (OVCAR-3 ovarian) of the same compound?
Its TGI is 2290 nM.

What about the GI50 (OVCAR-4 ovarian) of the same compound?
The GI50 was 1020 nM.

And the TGI (OVCAR-4 ovarian)?
The TGI was 2230 nM.

And the GI50 (OVCAR-5 ovarian)?
The GI50 was 1480 nM.

What about the TGI (OVCAR-5 ovarian) of the same compound?
Its TGI is 2840 nM.

And the GI50 (OVCAR-8 ovarian)?
The GI50 was 1660 nM.

What about the TGI (OVCAR-8 ovarian) of the same compound?
The TGI was 3040 nM.

And the GI50 (PC-3 prostate)?
The GI50 was 1230 nM.

What about the TGI (PC-3 prostate) of the same compound?
The TGI was 2480 nM.

And the GI50 (RPMI-8226 leukemia)?
Its GI50 is 1350 nM.

What about the TGI (RPMI-8226 leukemia) of the same compound?
The TGI was 2650 nM.

What about the GI50 (RXF 393 renal) of the same compound?
Its GI50 is 825 nM.

And the TGI (RXF 393 renal)?
Its TGI is 2200 nM.

What about the GI50 (SF-268 CNS) of the same compound?
The GI50 was 1600 nM.

What about the TGI (SF-268 CNS) of the same compound?
The TGI was 2970 nM.

And the GI50 (SF-295 CNS)?
Its GI50 is 1680 nM.

And the TGI (SF-295 CNS)?
Its TGI is 3050 nM.

And the GI50 (SF-539 CNS)?
The GI50 was 1680 nM.

What about the TGI (SF-539 CNS) of the same compound?
The TGI was 3060 nM.

And the GI50 (SK-MEL-28 melanoma)?
Its GI50 is 1670 nM.

What about the TGI (SK-MEL-28 melanoma) of the same compound?
Its TGI is 3040 nM.

And the GI50 (SK-MEL-5 melanoma)?
The GI50 was 1590 nM.

And the TGI (SK-MEL-5 melanoma)?
The TGI was 2940 nM.

And the GI50 (SK-OV-3 ovarian)?
The GI50 was 1430 nM.

What about the TGI (SK-OV-3 ovarian) of the same compound?
Its TGI is 2760 nM.

And the GI50 (SN12C renal)?
Its GI50 is 1210 nM.

And the TGI (SN12C renal)?
Its TGI is 2480 nM.

What about the GI50 (SNB-19 CNS) of the same compound?
Its GI50 is 1700 nM.

And the TGI (SNB-19 CNS)?
Its TGI is 3110 nM.

And the GI50 (SNB-75 CNS)?
Its GI50 is 1370 nM.

And the TGI (SNB-75 CNS)?
The TGI was 2670 nM.

And the GI50 (SR leukemia)?
Its GI50 is 24.3 nM.

And the TGI (SR leukemia)?
The TGI was 55.4 nM.

And the GI50 (SW-620 colon)?
Its GI50 is 1490 nM.

What about the TGI (SW-620 colon) of the same compound?
Its TGI is 2840 nM.

What about the GI50 (T-47D breast) of the same compound?
Its GI50 is 1350 nM.

And the TGI (T-47D breast)?
Its TGI is 2650 nM.

And the GI50 (TK-10 renal)?
The GI50 was 1570 nM.

What about the TGI (TK-10 renal) of the same compound?
The TGI was 2930 nM.

What about the GI50 (U251 glioblastoma) of the same compound?
The GI50 was 1680 nM.

What about the TGI (U251 glioblastoma) of the same compound?
The TGI was 3060 nM.

What about the GI50 (UACC-257 melanoma) of the same compound?
The GI50 was 1550 nM.

And the TGI (UACC-257 melanoma)?
The TGI was 2900 nM.

And the GI50 (UACC-62 melanoma)?
Its GI50 is 1600 nM.

And the TGI (UACC-62 melanoma)?
The TGI was 2960 nM.

What about the GI50 (UO-31 renal) of the same compound?
The GI50 was 1590 nM.

What about the TGI (UO-31 renal) of the same compound?
Its TGI is 2950 nM.
